Laboratory results taken from patent US20220079894A1, “STABLE PHARMACEUTICAL COMPOSITIONS” (priority 2020, published 2022).
Counter-ions that a name gives are not always drawn.

Experiment: NDMA content of Metformin Extended Release Tablets by LC-MS
Assay type: physicochemical
Settings: active substance of lot XP9004
Method: Of particular concern is the level of NDMA in a class of anti-diabetic drugs including metformin hydrochloride tablets. Since these drugs are administered over a long period of time to patients, the amount of NDMA impurity in such products is of particular concern. It has been established that the 96 ng is the Acceptable Daily Intake Limit (ADI) for N-Nitrosodimethylamine (NDMA) in Metformin Hydrochloride tablets. The levels of NDMA in metformin hydrochloride tablets can be determined by analytical methods like Liquid Chromatography-Mass Spectrometry. Other drugs that can have similar issues are anti-diabetic drugs, a drug to treat Gastroesophageal Reflux Diseases (GERD) or an Angiotensis II receptor antagonist drug (ARBs).
This meant that the potential daily exposure of NDMA in the product was 160 ng/day

NDMA in the active substance used in the lot: no detectable NDMA
Structure (SMILES): CN(C)C(=N)N=C(N)N [active substance, Metformin Hydrochloride]
